# Experimental data published in US20050250835A1, “Novel tumor-selective chemotherapeutic agents” (priority 2004, published 2005).
# Read-outs that look alike come from different tables or passages of the source.
# Experiments:
# various tumors = conditions: cited from earlier work
# colon 38 adenocarcinoma = experiment: Colon 38 adenocarcinoma in mice; assay type: in vivo, BDF1 mice
# JC breast adenocarcinoma = JC breast adenocarcinoma in mice; assay type: in vivo, Balb/c mice
# Method: (§1) JC is an epithelial-like cell line established in 1983 from a spontaneous primary adenocarcinoma along the milk line (Capone et al., Cancer Immuno. Immunother. 1987, 25, 93-9). It produces tumors with papillary adenocarcinoma morphology in BALB/c mice. […] At the lowest dose of 0.16 mg/kg, (+)-YW-391 (LCK: 1.5) killed 10-times more tumor cells than Dox at 8 mg/kg (LCK: 0.78). (+)-YW-391 has the potential to be a powerful new treatment for human breast cancer.
# [1] = tested on: SKOV-3 human ovarian cancer; experiment: SKOV-3 human ovarian cancer xenograft; assay type: in vivo, CD1 nude mice
# Method: Ovarian cancer is one of the most difficult to treat human cancers, and very few drugs are effective. YW-391 had significant activity in SKOV-3 human ovarian cancer xenograft (FIG. 8 and Table 9). […] [table] treated animals. YW-391 and doxorubicin were administered iv., and paclitaxel was administered ip. Equivalents
# Lewis lung carcinoma = Lewis lung carcinoma in mice
# L1210 leukemia = L1210 leukemia tumor model in mice
# Method: The compounds were tested in male BDF1 mice (18-22 g, 6 mice/group) bearing L1210 leukemia cells. […] Diluted ascitic fluid (0.1 mL) containing 10^5 leukemia cells were inoculated, i.p. in mice on day 0.
# various cancer cells = various cancer cells in vitro, 1 h exposure (Ghielmini et al. 1997); cited from earlier work
# [2] = one patient with liver cancer, 40 microg/m^2, one cycle (days 1-5); cited from earlier work
# [3] = JC breast adenocarcinoma in mice; assay type: in vivo, Balb/c mice; conditions: BALB/c, mouse, in vivo, intravenous, 8 mg/kg; mice bearing JC
# Method: as §1
# [4] = tested on: MDA-MB 435 human breast cancer; conditions: cited from earlier work
# HSA = HSA (Homo sapiens, UniProt P02768); conditions: exogenously added HSA; cited from earlier work
# endogenous albumin = target: T1, endogenous albumin (Homo sapiens, UniProt P02768); conditions: human blood plasma; cited from earlier work
# T1 construct: selectivity of Dox-MH for endogenous albumin, Dox-MH was incubated with human blood plasma; from tissue; host or cells: human blood plasma
# [5] = tested on: mouse renal RENCA, human breast cancers MDA-MB 435 and MCF-7; conditions: three animal tumor models; cited from earlier work
# L1210 leukemia cells = experiment: Anticancer activity in vitro, 3H-thymidine incorporation; assay type: cell-based, murine; conditions: Mus musculus, 48-h proliferation assay, 3H-thymidine uptake, mean of two experiments
# Method: The antitumor activity of the compounds was evaluated in vitro against L1210 leukemia and human SKOV-3 ovarian cancer cells (Table 4). L1210 leukemia cells and SKOV-3 (2.5×10^4 cells/well) in RPMI-1640 medium supplemented with 10% FCS medium were seeded in a 96-well plate. Drugs (10 uL) at increasing concentrations were added to each well, and the total volume was adjusted to 0.1 mL/well using the same medium. For L1210 leukemia cells, the plate was incubated for 24 h at 37° C. followed by addition of 10 uL of ^3H-thymidine (20 uCi/mL). […] The plate was incubated for another 24 h. The cells were harvested, and radioactivity was counted using the Packard Matrix 96 beta counter. The results were expressed as the minimal concentration that inhibits ^3H-thymidine incorporation by 50% (IC50). Percent growth inhibition was calculated as follows: [(total cpm−experimental cpm)/total cpm]×100.
# [6] = 0.2 mg/kg i.v. on days 1, 5, 12
# [7] = 3.0 mg/kg i.v. on days 1, 5, 12
# Sequence of HSA (P02768 25-609): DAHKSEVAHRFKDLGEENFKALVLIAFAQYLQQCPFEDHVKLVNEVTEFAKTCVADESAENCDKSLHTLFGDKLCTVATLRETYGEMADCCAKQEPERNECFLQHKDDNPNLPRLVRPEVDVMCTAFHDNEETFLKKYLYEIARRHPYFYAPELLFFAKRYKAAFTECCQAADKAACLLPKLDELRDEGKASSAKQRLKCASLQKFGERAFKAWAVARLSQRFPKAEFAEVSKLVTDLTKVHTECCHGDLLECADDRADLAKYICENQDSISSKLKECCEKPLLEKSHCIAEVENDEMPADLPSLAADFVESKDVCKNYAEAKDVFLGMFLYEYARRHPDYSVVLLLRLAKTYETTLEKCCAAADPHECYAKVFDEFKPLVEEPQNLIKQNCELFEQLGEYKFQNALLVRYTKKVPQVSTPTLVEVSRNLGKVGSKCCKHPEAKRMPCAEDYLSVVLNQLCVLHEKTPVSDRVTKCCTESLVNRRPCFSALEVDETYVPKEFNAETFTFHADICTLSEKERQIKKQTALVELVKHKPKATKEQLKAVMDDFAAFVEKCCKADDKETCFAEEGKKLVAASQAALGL
# T1 sequence (P02768 25-609): as above
smiles,measurement,setting,value
"Cc1c[nH]c2c(O)cc3c(c12)[C@H](CCl)CN3C(=O)c1cc2cc(NC(=O)Nc3ccc4[nH]c(C(=O)N5C[C@@H](CCl)c6c5cc(O)c5[nH]cc(C)c65)cc4c3)ccc2[nH]1 [Bizelesin, bizelesin]",antitumor activity in vivo,"various tumors; P388, L1210, B16, UACC-62, LOX IMVI, SK-MEL-3, CAKI-1, LX-1, Lewis lung, HT-29, colon 38, pancreas 02, MCF7, MX-1 (Carter et al. 1996)",effective
O=C(CCCCCN1C(=O)C=CC1=O)Oc1cc2c(c3ccccc13)[C@H](CCl)CN2C(=O)c1cc2cc(NC(=O)c3cc4cc(F)ccc4[nH]3)ccc2[nH]1 [(+)-YW-391],tumor cells killed relative to 5-FU at 70 mg/kg,colon 38 adenocarcinoma; 0.15 mg/kg (LCK 2.3) versus 5-FU 70 mg/kg (LCK 1.1),10 times
same,% Maximum weight loss,colon 38 adenocarcinoma; 0.3 mg/kg q4d × 2 i.v.,−25%
same,tumor cells killed relative to Dox at 8 mg/kg,JC breast adenocarcinoma; 0.16 mg/kg (LCK 1.5) versus Dox 8 mg/kg (LCK 0.78),10 times
same,TGI,"JC breast adenocarcinoma; at MTD, dose not given",98%
same,% Maximum weight loss,"[1]; 0.13 mg/kg iv. on days 15, 24, 33",−3%
same,% Maximum weight loss,Lewis lung carcinoma; [6],−17%
same,Log10 cell kill (LCK),Lewis lung carcinoma; [6],0.75
same,TGIs,Lewis lung carcinoma; no dose given,98%
same,% ILS,L1210 leukemia; 0.05 mg/kg i.v. on day 1,40%
same,% ILS,L1210 leukemia; 0.1 mg/kg i.v. on day 1,51%
"CCN(CC)c1ccc2cc(C(=O)Nc3ccc4[nH]c(C(=O)N5C[C@@H](CCl)c6c5cc(OC(=O)Nc5ccccc5)c5[nH]cc(C)c65)cc4c3)oc2c1 [Carzelesin, carzelesin]",antitumor activity in vivo,various tumors; several colon adenocarcinomas and pediatric rhabdomyosarcomas (Houghton et al. 1995),effective
same,average IC70 value,various cancer cells,0.23 ng/mL
same,duration of partial remission,[2],8 months
same,regression of primary liver cancer,[2],50%
"CC(=O)O[C@H]1C(=O)[C@@]2(C)[C@H]([C@H](OC(=O)c3ccccc3)[C@]3(O)C[C@H](OC(=O)[C@H](O)[C@@H](NC(=O)c4ccccc4)c4ccccc4)C(C)=C1C3(C)C)[C@]1(OC(C)=O)CO[C@@H]1C[C@@H]2O [Paclitaxel, paclitaxel]",% Maximum weight loss,"[1]; 25 mg/kg ip. on days 15, 24, 33",−1%
"COc1cccc2c1C(=O)c1c(O)c3c(c(O)c1C2=O)C[C@@](O)(C(=O)CO)C[C@@H]3O[C@H]1C[C@H](N)[C@H](O)[C@H](C)O1 [Doxorubicin, doxorubicin]",MTD,[3],8 mg/kg
same,% Maximum weight loss,JC breast adenocarcinoma; 8.0 mg/kg q4d × 3 i.v.,−25%
same,% Tumor growth inhibition,JC breast adenocarcinoma; 8.0 mg/kg q4d × 3 i.v.,82%
same,Log10 cell kill (LCK),JC breast adenocarcinoma; 8.0 mg/kg q4d × 3 i.v.,0.78
same,% Maximum weight loss,"[1]; 5 mg/kg iv. on days 15, 24, 33",−4%
same,% Tumor growth inhibition,"[1]; 5 mg/kg iv. on days 15, 24, 33",39%
same,antitumor response,[4]; free Dox,modest antitumor activity
same,body weight loss,[4]; treatment with free Dox,about 10%
same,% ILS,L1210 leukemia; 10.0 mg/kg i.v. on day 1,85%
"N.N.[Cl][Pt][Cl] [Cisplatin, cisplatin]",% Maximum weight loss,Lewis lung carcinoma; [7],−13%
same,% Tumor growth inhibition,Lewis lung carcinoma; [7],74%
same,Log10 cell kill (LCK),Lewis lung carcinoma; [7],0.45
COc1cccc2c1C(=O)c1c(O)c3c(c(O)c1C2=O)C[C@@](O)(/C(CO)=N/NC(=O)CCCCCN1C(=O)C=CC1=O)C[C@@H]3O[C@H]1C[C@H](N)[C@H](O)[C@H](C)O1 [Dox-MH],time by which all of the Dox-MH had reacted,HSA,≤ 90 min
same,time within which majority of the Dox-MH reacted with HSA,HSA,≤ 5 min
same,time by which all of the Dox-MH had reacted,endogenous albumin,≤ 90 min
same,body weight change,[4]; after 24 days of drug administration,did not produce an overall change in body weight
same,antitumor response,[4]; optimal dose 3×39.3 umol/kg (3×23 mg/kg),complete remissions
same,antitumor efficacy and toxicity versus free doxorubicin,[5],distinctly superior to free doxorubicin
O=C(CCCCCN1C(=O)C=CC1=O)Oc1cc2c(c3ccccc13)[C@H](CCl)CN2C(=O)c1cc2cc(NC(=O)c3cc4ccccc4o3)ccc2[nH]1 [(+)-YW-392],IC50,L1210 leukemia cells,31 nM
"Cc1c[nH]c2c1[C@@]13C[C@@H]1CN(C(=O)c1cc4cc(NC(=O)c5cc6ccccc6o5)ccc4[nH]1)C3=CC2=O [Adozelesin, adozelesin]",antitumor activity in vivo,"various tumors; L1210 leukemia, B16 melanoma, M5076 sarcoma, colon 38, colon CX-1, lung LX-1, pancreas 02, ovarian 2780 in mice (Li et al. 1991)",very active
COC(=O)c1c(C)[nH]c2c(OC(=O)N3CCN(C)CC3)cc3c(c12)[C@H](CBr)CN3C(=O)c1cc2cc(OC)c(OC)c(OC)c2[nH]1 [KW-2189],antitumor activity in vivo,"various tumors; P388, L1210, B16, colon 26, colon 38, LC-6, ST-4, ST-40, LI-7, PAN-02, MX-1 (Kobayashi et al. 1994)",active
